Measurements published in patent US12522594B2, “2-heteroaryl-3-oxo-2,3-dihydropyridazine-4-carboxamides for the treatment of cancer” (Deutsches Krebsforschungszentrum, priority 2017, dated 2026).
pIC50: −log10 of the molar value. Several values for one entry are separate records, joined by “and”; a condition that tells them apart may be missing. Identical values can stand only once.

Experiments:
Format in all cases: cell-based
AHR [1] = target: T1, AHR (Homo sapiens, UniProt P35869); test: In vitro assay 1: antagonism in human cell line (transactivation assay, U87 cells prestimulated with kynurenic acid, DRE firefly luciferase reporter); set-up: host or cells: U87 glioblastoma cells, stably transfected with DRE firefly luciferase and renilla reporter constructs; conditions: 150 uM kynurenic acid, 20 hours, read-out: Assay 1: AHR-luc Hum Antagonism IC50
T1 sequence (P35869 11-848): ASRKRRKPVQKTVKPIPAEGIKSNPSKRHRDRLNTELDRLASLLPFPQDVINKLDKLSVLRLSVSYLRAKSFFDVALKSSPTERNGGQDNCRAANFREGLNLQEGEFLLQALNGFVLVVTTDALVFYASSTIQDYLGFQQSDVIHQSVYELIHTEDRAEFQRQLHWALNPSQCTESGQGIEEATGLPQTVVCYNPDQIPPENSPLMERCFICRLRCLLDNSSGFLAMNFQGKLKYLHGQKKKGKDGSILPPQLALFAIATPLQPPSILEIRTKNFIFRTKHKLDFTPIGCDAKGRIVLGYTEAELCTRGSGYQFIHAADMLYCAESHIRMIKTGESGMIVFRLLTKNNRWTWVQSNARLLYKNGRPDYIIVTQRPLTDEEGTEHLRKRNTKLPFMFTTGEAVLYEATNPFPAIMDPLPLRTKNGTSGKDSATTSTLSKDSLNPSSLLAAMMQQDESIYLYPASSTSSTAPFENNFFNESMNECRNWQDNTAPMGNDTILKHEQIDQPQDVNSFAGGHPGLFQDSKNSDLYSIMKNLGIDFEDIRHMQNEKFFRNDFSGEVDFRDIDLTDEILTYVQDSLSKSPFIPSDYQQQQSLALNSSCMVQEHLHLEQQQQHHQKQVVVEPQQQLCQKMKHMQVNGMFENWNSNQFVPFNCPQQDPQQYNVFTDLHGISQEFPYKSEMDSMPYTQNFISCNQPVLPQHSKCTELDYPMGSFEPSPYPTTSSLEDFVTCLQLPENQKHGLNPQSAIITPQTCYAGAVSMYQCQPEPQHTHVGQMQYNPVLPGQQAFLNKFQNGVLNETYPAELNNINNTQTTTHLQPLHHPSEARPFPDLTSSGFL
Method in brief: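 U87 glioblastoma cells with endogenous AHR, stably carrying a DRE-driven firefly luciferase reporter and a constitutive renilla reporter. Cells prestimulated with the AHR agonist kynurenic acid before compound addition; data normalized to positive and negative controls.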

AHR [2] = target: T1, AHR; test: In vitro assay 2: agonism in human cell line (transactivation assay, U87 cells, DRE firefly luciferase reporter); set-up: host or cells: U87 glioblastoma cells, stably transfected with DRE firefly luciferase and renilla reporter constructs; conditions: no kynurenic acid, 20 hours, read-out: Assay 2: AHR-luc Hum Agonism IC50
Method in brief: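 U87 glioblastoma cells with endogenous AHR, stably carrying DRE-driven firefly luciferase and constitutive renilla reporters. 300 uM kynurenic acid served as positive activation control; data normalized to positive and negative controls.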

human monocytes = test: In vitro assay 4: rescue of TNFα production from human primary monocytes (LPS + KA); conditions: one value per donor; for Individual Donors Conc of highest rescue: concentration (of 1, 0.3, 0.1 uM tested) at which highest TNFα rescue was observed; for Individual Donors % rescue TNFα normalised to ref cmpd: human monocytes, 10 ng/mL LPS + 200 uM KA, 18 hours, highest percent rescue relative to highest rescue with GNF-351
Procedure: In Vitro Assay 4: Rescue of TNFα Production from Human Primary Monocytes
The ability of the substances to enhance immune cell activity was determined. The substances were tested for their capacity to reverse KA-induced inhibition of TNFα production by LPS-stimulated human monocytes. Human monocytes were purified by negative selection from donor PBMCs using Miltenyi beads and seeded at 2×10^5 cells/well in complete growth medium (RPMI 1640, 10% FCS). Monocytes were incubated with 10 ng/mL LPS (O127:B8, #L4516, Sigma) and 200 uM KA (#3375, Sigma) and substances were added at concentrations of 1 uM, 0.3 uM and 0.1 uM and cultured for 18 hours. LPS alone served as the positive control. TNFα production in the supernatant was measured by Meso Scale Discovery immunoassay and the ability of the substances to rescue TNFα production was calculated as a percentage of LPS stimulation and KA-induced inhibition and normalized to the donor-specific response with the reference AHR antagonist compound GNF-351 (Smith et al., J Pharmacol Exp Ther, 2011, 338(1):318-27).

AHR [3] = target: T1, AHR; test: In vitro assay 3: AHR-regulated CYP1A1 expression in human cell line (U937, qPCR, KA stimulation); conditions: U937 cells, 200 uM KA, 6 hours, CYP1A1 expression by qPCR; read-out: Assay 3: Hum CYP1A1 Antagonism IC50
Method in brief: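 U937 human monocytic cells were stimulated with 200 uM KA for 6 h, with or without compound at eight concentrations from 1 nM to 3 uM, in duplicate. CYP1A1 mRNA was quantified by Taqman qPCR as fold expression normalised to HPRT. Unstimulated cells served as negative control.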

Structure (SMILES)	pIC50 (AHR [1])	pIC50 (AHR [2])	pIC50 (AHR [3])	Individual Donors Conc of highest rescue (human monocytes)	Individual Donors % rescue TNFα normalised to ref cmpd (human monocytes)
Cn1cc(-n2nc(-c3ccc(Cl)cc3)cc(C(=O)NCC(O)C(F)F)c2=O)cn1 (single isomer, unassigned; (+)) [Example 23, (+)-6-(4-Chlorophenyl)-N-(3,3-difluoro-2-hydroxypropyl)-2-(1-methyl-1H-pyrazol-4-yl)-3-oxo-2,3-dihydropyridazine-4-carboxamide]	7.34	< 4.70	–	1 µM	274% and 81%
COCC(O)CNC(=O)c1cc(-c2ccc(Cl)cc2)nn(-c2cnn(C)c2)c1=O (stereo not drawn) [Example 24, 6-(4-Chlorophenyl)-N-(2-hydroxy-3-methoxypropyl)-2-(1-methyl-1H-pyrazol-4-yl)-3-oxo-2,3-dihydropyridazine-4-carboxamide]	7.06	< 4.70	–	0.3 µM and 1 µM	84% and 59%
C[C@H](CO)NC(=O)c1cc(-c2ccc(Cl)cc2)nn(-c2cccnc2)c1=O [Example 69, 6-(4-Chlorophenyl)-N-[(2R)-1-hydroxypropan-2-yl]-3-oxo-2-(pyridin-3-yl)-2,3-dihydropyridazine-4-carboxamide]	6.67	< 4.70	–	0.1 µM	88% and 97%
Cn1cc(-n2nc(-c3ccc(C(F)(F)F)cc3)cc(C(=O)N[C@H](CO)C(F)(F)F)c2=O)cn1 [Example 36, 2-(1-Methyl-1H-pyrazol-4-yl)-3-oxo-N-[(2R)-1,1,1-trifluoro-3-hydroxypropan-2-yl]-6-[4-(trifluoromethyl)phenyl]-2,3-dihydropyridazine-4-carboxamide]	–	< 4.70	–	1 µM	74% and 65%
O=C(NCC(O)C(F)F)c1cc(-c2ccc(Cl)cc2)nn(-c2cccnc2)c1=O (single isomer, unassigned; (-)) [Example 87, (−)-6-(4-Chlorophenyl)-N-(3,3-difluoro-2-hydroxypropyl)-3-oxo-2-(pyridin-3-yl)-2,3-dihydropyridazine-4-carboxamide]	7.53	< 4.70	7.67	–	–
Cn1cc(-n2nc(-c3ccc(C(F)F)cc3)cc(C(=O)NCC(C)(C)O)c2=O)cn1 [Example 62, 6-[4-(Difluoromethyl)phenyl]-N-(2-hydroxy-2-methylpropyl)-2-(1-methyl-1H-pyrazol-4-yl)-3-oxo-2,3-dihydropyridazine-4-carboxamide]	7.53	< 4.70	7.72	–	–
C[C@@H](CO)NC(=O)c1cc(-c2ccc(C(F)F)cc2)nn(-c2cnn(C)c2)c1=O [Example 58, 6-[4-(Difluoromethyl)phenyl]-N-[(2S)-1-hydroxypropan-2-yl]-2-(1-methyl-1H-pyrazol-4-yl)-3-oxo-2,3-dihydropyridazine-4-carboxamide]	7.73	< 4.70	7.97	–	–
Cc1ccc(-c2cc(C(=O)NCC(O)C(F)(F)F)c(=O)n(-c3cnn(C)c3)n2)cc1 (single isomer, unassigned; enantiomer 1) [Example 11, (−)-6-(4-Methylphenyl)-2-(1-methyl-1H-pyrazol-4-yl)-3-oxo-N-(3,3,3-trifluoro-2-hydroxypropyl)-2,3-dihydropyridazine-4-carboxamide, Enantiomer 1]	8.34	< 4.70	9.82	–	–

The next lines start with results.

pIC50 (AHR [1])	pIC50 (AHR [2])	pIC50 (AHR [3])	Structure (SMILES)	Individual Donors Conc of highest rescue (human monocytes)	Individual Donors % rescue TNFα normalised to ref cmpd (human monocytes)
8.51	< 4.70	8.24	C[C@@H](CO)NC(=O)c1cc(-c2ccc(C(F)(F)F)cc2)nn(-c2cccnc2)c1=O [Example 119, N-[(2S)-1-Hydroxypropan-2-yl]-3-oxo-2-(pyridin-3-yl)-6-[4-(trifluoromethyl)phenyl]-2,3-dihydropyridazine-4-carboxamide]	–	–
7.72	< 4.70	8.56	O=C(NC(CO)C1CC1)c1cc(-c2ccc(Cl)cc2)nn(-c2cccnc2)c1=O (single isomer, unassigned; (-)) [Example 92, (−)-6-(4-Chlorophenyl)-N-(1-cyclopropyl-2-hydroxyethyl)-3-oxo-2-(pyridin-3-yl)-2,3-dihydropyridazine-4-carboxamide]	–	–
7.62	< 4.70	7.66	C[C@@H](CO)NC(=O)c1cc(-c2ccc(OC(F)(F)F)cc2)nn(-c2cccnc2)c1=O [Example 153, N-[(2S)-1-Hydroxypropan-2-yl]-3-oxo-2-(pyridin-3-yl)-6-[4-(trifluoromethoxy)phenyl]-2,3-dihydropyridazine-4-carboxamide]	–	–
7.96	< 4.70	7.44	CC(C)(O)C(NC(=O)c1cc(-c2ccc(C(F)(F)F)cc2)nn(-c2cccnc2)c1=O)C(F)(F)F (single isomer, unassigned; (-)) [Example 241, (−)-3-Oxo-2-(pyridin-3-yl)-N-(1,1,1-trifluoro-3-hydroxy-3-methylbutan-2-yl)-6-[4-(trifluoromethyl)phenyl]-2,3-dihydropyridazine-4-carboxamide]	–	–
6.45	< 4.70	8.52	Cc1cc(-n2nc(-c3ccc(Cl)cc3)cc(C(=O)N[C@@H](C)CO)c2=O)[nH]n1 [Example 193, 6-(4-Chlorophenyl)-N-[(2S)-1-hydroxypropan-2-yl]-2-(3-methyl-1H-pyrazol-5-yl)-3-oxo-2,3-dihydropyridazine-4-carboxamide]	–	–
7.85	< 4.70	7.50	Cn1cc(-n2nc(-c3ccc(C(F)(F)F)cc3)cc(C(=O)N[C@@H]3CCC[C@H]3O)c2=O)cn1 [Example 248, N-[(1R,2R)-2-Hydroxycyclo-pentyl]-2-(1-methyl-1H-pyrazol-4-yl)-3-oxo-6-[4-(trifluoromethyl)phenyl]-2,3-dihydropyridazine-4-carboxamide]	–	–
8.42	< 4.70	8.36	O=C(N[C@H]1CCCC[C@H]1O)c1cc(-c2ccc(Cl)cc2)nn(-c2cccnc2)c1=O [Example 125, 6-(4-Chlorophenyl)-N-[(1S,2R)-2-hydroxycyclohexyl]-3-oxo-2-(pyridin-3-yl)-2,3-dihydropyridazine-4-carboxamide]	–	–
8.34	< 4.70	8.29	O=C(N[C@H]1CCCC[C@H]1O)c1cc(-c2ccc(OC(F)(F)F)cc2)nn(-c2cccnc2)c1=O [Example 126, N-[(1S,2R)-2-Hydroxycyclohexyl]-3-oxo-2-(pyridin-3-yl)-6-[4-(trifluoromethoxy)phenyl]-2,3-dihydropyridazine-4-carboxamide]	–	–
9.00	< 4.70	8.81	Cn1cc(-n2nc(-c3ccc(C(F)(F)F)cc3)cc(C(=O)N[C@H]3CCC[C@H]3O)c2=O)cn1 [Example 204, N-[(1S,2R)-2-Hydroxycyclopentyl]-2-(1-methyl-1H-pyrazol-4-yl)-3-oxo-6-[4-(trifluoromethyl)phenyl]-2,3-dihydropyridazine-4-carboxamide]	–	–
